Several values for one entry are separate records, joined by “and”; a condition that tells them apart may be missing. Equal entries are not always repeated. Peptide text beside a SMILES is read from it. * marks the point of attachment. Cbz = O=C(OCc1ccccc1)*

T1 sequence (P56817 46-501): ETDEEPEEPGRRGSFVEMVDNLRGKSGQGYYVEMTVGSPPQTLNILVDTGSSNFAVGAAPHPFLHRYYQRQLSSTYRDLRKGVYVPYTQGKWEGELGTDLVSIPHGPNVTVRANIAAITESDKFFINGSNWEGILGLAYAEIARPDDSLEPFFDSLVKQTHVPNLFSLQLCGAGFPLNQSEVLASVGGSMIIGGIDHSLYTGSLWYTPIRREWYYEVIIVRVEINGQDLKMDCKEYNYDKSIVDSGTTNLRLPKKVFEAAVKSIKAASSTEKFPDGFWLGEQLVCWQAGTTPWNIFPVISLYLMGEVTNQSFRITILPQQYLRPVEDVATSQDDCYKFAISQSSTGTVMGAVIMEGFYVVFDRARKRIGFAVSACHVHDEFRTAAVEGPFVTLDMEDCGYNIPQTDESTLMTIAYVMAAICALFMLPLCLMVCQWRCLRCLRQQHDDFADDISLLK

One experiment concerns the target T1, BACE1 (Homo sapiens, UniProt P56817).
T1 construct: purchased Sigma-Aldrich Co. LLC; CS0010
Put plainly: Cell-free FRET assay for BACE1 activity (β-Secretase (BACE1) Activity Detection Kit CS0010). The experiment is classed as biochemical. As to conditions: 10 μM; Table S2, thirty-four in vitro tested compounds; mean of at least three independent experiments in triplicate.
For `COc1cc(C(O)C(O)c2cc(CN3CCOCC3)c(O)c(OC)c2)cc(CN2CCOCC2)c1O` (stereo not shown) [NSC55229], the “Average percent inhibition at 10 μM” value turned out to be 12.1%.
The same measure, in the same setting: with `N#CC(NCCCNC(C#N)c1ccccc1)c1ccccc1` (stereo not shown) [NSC81537] the figure was 8.6%; with `CC(=O)c1ccc(OCC(O)CN2CCN(c3ccccc3)CC2)c(C)c1` (stereo not shown) [NSC147841], 13.0%.
Turning to `CC(=O)c1ccccc1OCC(O)CN1CCN(c2cccc(C(F)(F)F)c2)CC1` (stereo not shown) [NSC147843], the “Average percent inhibition at 10 μM” value amounted to 9.6%.
Still for that read-out and setting: in the case of `CC(=O)c1ccccc1OCC(O)CN1CCN(c2ccccc2)CC1` (stereo not shown) [NSC147850] it was 8.7%; in that of `CC(=O)c1cccc(OCC(O)CN2CCN(c3ccc(C)cc3)CC2)c1` (stereo not shown) [NSC147852], 10.6%; in that of `O=C1c2ccccc2C(=O)c2c(NCCCNCCO)ccc(NCCCNCCO)c21` [NSC278467], 17.0%.
On to `O=C(NC(Cc1cnc[nH]1)C(=O)NC(Cc1ccc(O)cc1)C(=O)O)OCc1ccccc1` (stereo not drawn) [NSC333463] (Cbz-His-Tyr-OH; configuration not given here), for which the “Average percent inhibition at 10 μM” value came out at 13.4%.

The same experiment, now with this note: 10 μM; mean of at least three independent experiments performed in triplicate; read-out: Average Percent Inhibition at 10 μM.
As a reminder, the inhibition is the drop in the measured response relative to a control, in per cent. For the compound `COc1ccc(C(=O)/C=C/c2cn(CC(O)CN3CCN(C)CC3)c3ccccc23)cc1` (stereo not shown) [Compound 11], the inhibition at 10 µM came to 50.3%.
Same read-out and setting: with `Cc1cc(=O)oc2cc(OCC(O)CN3CCN(c4ccc(F)cc4)CC3)ccc12` (stereo not shown) [Compound 12] the figure was 33.5%.
On to `O=C(CCc1ccccc1)c1ccccc1OCC(O)CN1CCCCC1` (stereo not shown) [Compound 13], for which the inhibition at 10 µM worked out at 34.7%.
The same measure, in the same setting: in the case of `CC(=O)Nc1ccc(N2C(=O)CC(NCc3ccc(Cl)cc3Cl)C2=O)cc1` (stereo not shown) [Compound 14] it was 31.3%; in that of `NC(Cc1ccccc1)C(=O)NCC(=O)NC(Cc1ccccc1)C(=O)NCC(=O)O` (stereo not shown) [Compound 15] (H-FGFG-OH; configuration not given here), 30.7%; in that of `CC(CCc1ccc(O)cc1)NCCc1ccc(O)c(O)c1` (stereo not shown) [Compound 16, dobutamine], 29.9%.
Same read-out and setting: with `O=C1c2c(O)ccc(O)c2C(=O)c2c(NCCNCCO)ccc(NCCNCCO)c21` [Compound 17, mitoxantrone] the figure was 22.6%; with `CCN(CC)CCNc1ccc(CO)c2oc3ccccc3c(=O)c12` [Compound 18], 20.6%; with `Cc1ccc(S(=O)(=O)Oc2ccc3oc4c(CO)ccc(NCCN(C)C)c4c(=O)c3c2)cc1` [Compound 19], 21.2%.
As for `O=C1c2ccccc2C(=O)c2c3c(cc(NCCNCCO)c21)N(CCO)CCN3` [Compound 20], the inhibition at 10 µM was 19.5%.
Still for that read-out and setting: in the case of `CC(=O)[C@]1(O)Cc2c(O)c3c(c(O)c2[C@@H](O[C@H]2C[C@H](N)[C@H](O)[C@H](C)O2)C1)C(=O)c1ccccc1C3=O` [Compound 21, idarubicin] it was 18.1%; in that of `CC1(C)N=C(N)N=C(N)N1c1cccc(OCCCOc2ccc(NC(=O)CBr)cc2)c1` [Compound 22], 18.1%.

The same experiment, now with this note: from the dose-response curve (Figure 8).
As a reminder, the IC50 is the concentration needed to halve the response being measured. Take `COc1ccc(C(=O)/C=C/c2cn(CC(O)CN3CCN(C)CC3)c3ccccc23)cc1` (stereo not shown) [Compound 11]: the IC50 is 15.4 µM and 15 µM.

Still in this experiment, the particulars now being: read-out: Average percent inhibition at 10 μM.
As for `O=C1c2ccccc2C(=O)c2c(NCCNCCO)ccc(NCCNCCO)c21` [NSC196473], the inhibition at 10 µM turned out to be 12.4%.

The next experiment addresses T1, BACE1.
Test: not given
More on the design: method as in ChEMBL23 [24]. Particulars: known BACE1 inhibitors of Training/Test sets; ref ChEMBL23 [24]; cited from earlier work.
With `O=C(Nc1cc(Br)ccc1N1CCNCC1)c1cccc2ccccc12` [ChEMBL203120], the IC50 was 1 µM.
Consider `CC(C)C[C@H](NC(=O)[C@@H](NC(=O)[C@@H](N)CNC(=O)c1nn[nH]n1)C(C)C)C(=O)N[C@@H](Cc1ccccc1)[C@@H](O)C(=O)Nc1cc(-c2nn[nH]n2)cc(-c2nn[nH]n2)c1` [ChEMBL439521], for which the half-inhibitory concentration (IC50) is 0.0012 µM.
`CCc1cn2c3c(cc(C(=O)N[C@@H](Cc4ccccc4)[C@H](O)CNC4CC4)cc13)N(CC)S(=O)(=O)CC2` [ChEMBL533064]: the half-inhibitory concentration (IC50) was 0.02 µM.
Turning to `Cc1cc(C2(c3cccc(-c4cncnc4)c3)N=C(N)N(C)C2=O)ccn1` (stereo not shown) [ChEMBL598258], the IC50 is 0.08 µM.
Consider `NC1=NC(c2ccccc2)(C2CCCCC2)C(=O)N1CCCCCC(=O)O` (stereo not shown) [ChEMBL607527], for which the IC50 is 0.95 µM.
As for `O=C(C[n+]1ccccc1)Nc1cccc(C(=O)Nc2ccc(Cl)cc2)c1` [ChEMBL1163225], the IC50 was 1 µM.
Consider `NC1=N[C@@]2(CCOC1)c1cc(-c3cccnc3F)ccc1Oc1cnc(-c3ccc(F)c(F)c3)cc12` [ChEMBL2152912], for which the IC50 was 0.002 µM.
Turning to `NC1=NC(c2ccncc2)(c2cccc(-c3cncc(F)c3)c2)c2cccc(F)c21` (stereo not shown) [ChEMBL2177905], the IC50 was 0.137 µM.
Regarding `NC1=N[C@@]2(CO1)c1cc(-c3cccnc3F)ccc1Oc1c2cc(N2CCOCC2)nc1F` [ChEMBL3394224], the IC50 was 0.0003 µM.
On to `CN1C(=O)CC2(N=C1N)c1cc(-c3cccnc3F)ccc1Oc1c2cc(-c2ccnc(F)c2)nc1F` (stereo not shown) [ChEMBL3639946], for which the half-maximal inhibitory concentration (IC50) is 0.0024 µM.
Turning to `NC1=NC2(CO1)c1cc(NC(=O)c3ncc(Br)cn3)ccc1OCC21CC1` (stereo not shown) [ChEMBL3650820], the IC50 is 0.661 µM.
For the compound `CC1(c2cccc(NC(=O)c3ncc(Br)cn3)c2)COCC(N)=N1` (stereo not shown) [ChEMBL3653345], the IC50 is 0.54 µM.
For `CC1=NC2(CC(C3CCOC(C)(C)C3)Oc3ccc(-c4cccc(Cl)c4)cc32)N=C1N` (stereo not shown) [ChEMBL3653708], the IC50 is 0.005 µM.
Take `CCc1ccc2c(c1)C1(N=C(N)N(C)O1)[C@]1(CC[C@H](OC)CC1)C2` (stereo partly shown) [ChEMBL3656204]: the IC50 is 0.521 µM.
With `CC1(C)OCC(N)=N[C@](C)(c2cc(NC3COc4cc(Cl)ccc43)ccc2F)C1(F)F` (stereo partly shown) [ChEMBL3670919], the IC50 was 0.32 µM.
Regarding `[C-]#[N+]c1ccc(C(=O)Nc2ccc(F)c([C@]34COC[C@@]3(F)CSC(N)=N4)c2)nc1` [ChEMBL3672943], the IC50 is 0.0066 µM.
For `COC1CCC2(CC1)Cc1ccc(-c3cccc(C#N)c3)cc1C21N=C(N)c2ccccc21` (stereo not shown) [ChEMBL3673221], the IC50 is 0.006 µM.
Consider `COc1cc(F)c2c(c1)C1(N=C(N)n3ccnc31)c1cc(-c3cccnc3F)ccc1O2` (stereo not shown) [ChEMBL3677269], for which the IC50 is 0.009 µM.
For the compound `NC1=N[C@@]2(c3cc(-c4cccnc4F)ccc3Oc3c(F)cc(N4CCOCC4)cc32)c2nccn21` [ChEMBL3677276], the IC50 is 0.0007 µM.
Regarding `NC1=N[C@](CF)(c2cc(NC(=O)c3cc4ccccc4cn3)ccc2F)[C@H]2C[C@H]2O1` [ChEMBL3688633], the IC50 was 0.499 µM.
On to `NC1=NC2(CO1)c1cc(-c3cc(Cl)cnc3F)ccc1OC1(CCC1)C21COC1` (stereo not shown) [ChEMBL3703272], for which the IC50 is 0.827 µM.
On to `CC(C)c1ccc(CO[C@H]2CN(S(=O)(=O)c3ccccc3)C[C@@H]2Nc2nc3cc(F)ccc3[nH]2)cc1` [ChEMBL3746896], for which the IC50 was 0.48 µM.
Turning to `CCO[C@H]1CC[C@]2(CC1)Cc1ccc(-c3cccc(OC)c3)cc1C21N=C(N)N(C)C1=O` (stereo partly shown) [ChEMBL3978126], the IC50 is 0.015 µM.
`CC#CCOc1cnc(C(=O)Nc2ccc(Cl)c(C3(C(F)F)N=C(N)OC4CC43)c2)cn1` (stereo not shown) [Compound 4]: the IC50 is 0.0039 µM.

The values are drawn from PMC7226079, “Combining Virtual Screening Protocol and In Vitro Evaluation towards the Discovery of BACE1 Inhibitors” (Biomolecules, 2020).
